In ChEMBL document CHEMBL1124209, “Phosphonoformate and phosphonoacetate derivatives of 5-substituted 2'-deoxyuridines: synthesis and antiviral activity” (1988):
Converted amounts (≈) assume the structure as drawn.

Experiments:
Assay type in all cases: functional
Human alphaherpesvirus 1 [1] = assay: Minimum inhibitory concentration causing 25% inhibition of cytopathic effect induced by Herpes simplex virus-1 (K979) in HEp-2 cells
Human alphaherpesvirus 1 [2] = assay: Minimum inhibitory concentration causing 25% inhibition of cytopathic effect induced by Herpes simplex virus-1 (Brand) in vero cells
Human alphaherpesvirus 1 [3] = assay: Minimum inhibitory concentration causing 25% inhibition of cytopathic effect induced by herpes simplex virus (HSV)-1 (K979) in vero cells.
Human alphaherpesvirus 1 [4] = assay: Minimum inhibitory concentration causing 25% inhibition cytopathic effect induced by Herpes simplex virus-1 (Brand) in HEp-2 cells
Oryctolagus cuniculus = species on record: Oryctolagus cuniculus; assay: Minimum cytotoxic concentration causing toxic effects on uninfected cells in rabbit
Human alphaherpesvirus 1 [5] = assay: Mean survival time in HSV-1 infected mice, after intraperitoneal administration of 5 mg/kg of compound
Human alphaherpesvirus 1 [6] = assay: Cumulative mortality in percent of HSV-1 infected mice, after intraperitoneal administration of 0.5 mg/kg of compound
Human alphaherpesvirus 1 [7] = assay: Mean survival time in HSV-1 infected mice, after intraperitoneal administration of 1 mg/kg of compound
Human alphaherpesvirus 1 [8] = assay: Mean survival time in HSV-1 infected mice, after peroral administration of 5 mg/kg of compound; conditions: route oral
Human alphaherpesvirus 1 [9] = assay: Minimum inhibitory concentration causing 25% inhibition of cytopathic effect induced by Herpes simplex virus(HSV) -1 (thymidine kinase deficient) in vero cells
Human alphaherpesvirus 2 [10] = assay: Minimum inhibitory concentration causing 25% inhibition of cytopathic effect induced by Herpes simplex virus(HSV) -2 (thymidine kinase deficient) in HEp-2 cells
Human alphaherpesvirus 1 [11] = assay: Mean survival time in HSV-1 infected mice, after peroral administration of 10 mg/kg of compound; conditions: route oral
Human alphaherpesvirus 1 [12] = assay: Cumulative mortality in percent of HSV-1 infected mice, after peroral administration of 10 mg/kg of compound; conditions: route oral
Human alphaherpesvirus 1 [13] = assay: Mean survival time in HSV-1 infected mice, after intraperitoneal administration of 0.5 mg/kg of compound
Human alphaherpesvirus 1 [14] = assay: Cumulative mortality in percent of HSV-1 infected mice, after intraperitoneal administration of 5 mg/kg of compound
Human alphaherpesvirus 1 [15] = assay: Mean survival time in HSV-1 infected mice, after peroral administration of 1 mg/kg of compound; conditions: route oral
Human alphaherpesvirus 2 [16] = assay: Minimum inhibitory concentration causing 25% inhibition of cytopathic effect induced by Herpes simplex virus(HSV) -2 (thymidine kinase deficient) in vero cells
Human alphaherpesvirus 1 [17] = assay: Minimum inhibitory concentration causing 25% inhibition of cytopathic effect induced by Herpes simplex virus(HSV) -1 (thymidine kinase deficient) in HEp-2 cells
Human alphaherpesvirus 1 [18] = assay: Cumulative mortality in percent of HSV-1 infected mice, after peroral administration of 5 mg/kg of compound; conditions: route oral
Human alphaherpesvirus 1 [19] = assay: Cumulative mortality in percent of HSV-1 infected mice, after intraperitoneal administration of 1 mg/kg of compound
Human alphaherpesvirus 1 [20] = assay: Cumulative mortality in percent of HSV-1 infected mice, after peroral administration of 1 mg/kg of compound; conditions: route oral
Mus musculus [21] = assay: Mean duration of lesions in HSV-1 infected mice, after administration of 0.1 % of compound intracutaneously
Mus musculus [22] = assay: Cumulative lesions in HSV-1 infected mice, after administration of 0.1 % of compound intracutaneously

Compound	MIC (Human alphaherpesvirus 1 [1])	MIC (Human alphaherpesvirus 1 [2])	MIC (Human alphaherpesvirus 1 [3])	MIC (Human alphaherpesvirus 1 [4])	MTC (Oryctolagus cuniculus)	MST (Human alphaherpesvirus 1 [5])	CMP (Human alphaherpesvirus 1 [6])	MST (Human alphaherpesvirus 1 [7])	MST (Human alphaherpesvirus 1 [8])	MST (Human alphaherpesvirus 1 [11])	CMP (Human alphaherpesvirus 1 [12])	MST (Human alphaherpesvirus 1 [13])	CMP (Human alphaherpesvirus 1 [14])	MST (Human alphaherpesvirus 1 [15])	CMP (Human alphaherpesvirus 1 [18])	CMP (Human alphaherpesvirus 1 [19])	CMP (Human alphaherpesvirus 1 [20])	further results
CCOC(=O)P(=O)(OC)OC[C@H]1O[C@@H](n2cc(C)c(=O)[nH]c2=O)C[C@@H]1O (some centres undefined)	> 255 µM	> 255 µM	> 255 µM	> 255 µM	>=842 uM													
COP(=O)(CC(=O)OC[C@H]1O[C@@H](n2cc(C)c(=O)[nH]c2=O)C[C@@H]1O)OC	> 255 µM	> 255 µM	> 255 µM	> 255 µM	>=842 uM													
COC(=O)P(=O)(O)OC[C@H]1O[C@@H](n2cc(CCCl)c(=O)[nH]c2=O)C[C@@H]1O	242 µM (≈ 99.9 µg/mL)	24.2 µM (≈ 9.99 µg/mL)	> 242 µM	24.2 µM (≈ 9.99 µg/mL)	>=800 uM	16.3 days	75	14.1 days	12.7 days	13.7 days	75	11.8 days	33	12.6 days	67	58	75	MIC (Human alphaherpesvirus 1 [9]): 242 µM (≈ 99.9 µg/mL); MIC (Human alphaherpesvirus 2 [10]): > 242 µM; MIC (Human alphaherpesvirus 2 [16]): > 242 µM; MIC (Human alphaherpesvirus 1 [17]): > 242 µM
CCOC(=O)CP(=O)(O)OC[C@H]1O[C@@H](n2cc(CCCl)c(=O)[nH]c2=O)C[C@@H]1O	> 227 µM	> 227 µM	> 227 µM	> 227 µM	749 µM	15.5 days	75	11.3 days	13.6 days	15.9 days	42	12.2 days	42	11.9 days	58	83	83	
O=C(OCc1ccccc1)P(=O)(O)OC[C@H]1O[C@@H](n2cc(CCCl)c(=O)[nH]c2=O)C[C@@H]1O	> 205 µM	20.5 µM (≈ 10 µg/mL)	> 205 µM	20.5 µM (≈ 10 µg/mL)	675 µM	19.3 days	67	16.3 days	14.3 days	16.8 days	33	13.8 days	8	12.7 days	50	33	67	MDL (Mus musculus [21]): 8.1 days; MIC (Human alphaherpesvirus 1 [9]): 20.5 µM (≈ 10 µg/mL); MIC (Human alphaherpesvirus 2 [10]): > 205 µM; lesions (Mus musculus [22]): 100; MIC (Human alphaherpesvirus 2 [16]): 205 µM (≈ 100 µg/mL); MIC (Human alphaherpesvirus 1 [17]): > 205 µM
CCOC(=O)CP(=O)(O)O[C@H]1C[C@H](n2cc(CCCl)c(=O)[nH]c2=O)O[C@@H]1CO	> 227 µM	> 227 µM	> 227 µM	> 227 µM	749 µM													MDL (Mus musculus [21]): 9.4 days; lesions (Mus musculus [22]): 80
CCOC(=O)CP(=O)(OC)OC[C@H]1O[C@@H](n2cc(C)c(=O)[nH]c2=O)C[C@@H]1O (some centres undefined)	> 246 µM	> 246 µM	> 246 µM	> 246 µM	>=812 uM													
CCOC(=O)P(=O)(OC)OC[C@H]1O[C@@H](n2ccc(=O)[nH]c2=O)C[C@@H]1O (some centres undefined)	> 264 µM	> 264 µM	> 264 µM	> 264 µM	>=872 uM													
CC(C)(C)OC(=O)CP(=O)(O)OC[C@H]1O[C@@H](n2cc(CCCl)c(=O)[nH]c2=O)C[C@@H]1O	> 213 µM	> 213 µM	> 213 µM	> 213 µM	>=704 uM	15.4 days	67	12.8 days	11.3 days	13.3 days	58	12.9 days	50	11.5 days	83	67	83	
CCOC(=O)CP(=O)(OC)OC[C@H]1O[C@@H](n2ccc(=O)[nH]c2=O)C[C@@H]1O (some centres undefined)	> 255 µM	> 255 µM	> 255 µM	> 255 µM	>=842 uM													
CCOC(=O)P(=O)(O)O[C@H]1C[C@H](n2cc(CCCl)c(=O)[nH]c2=O)O[C@@H]1CO	> 234 µM	234 µM (≈ 99.9 µg/mL)	> 234 µM	> 234 µM	>=773 uM	18.9 days	83	15.6 days	11.9 days	11.8 days	75	11.5 days	8	11.3 days	75	42	83	MDL (Mus musculus [21]): 9.7 days; lesions (Mus musculus [22]): 90
COC(=O)P(=O)(O)O[C@H]1C[C@H](n2cc(CCCl)c(=O)[nH]c2=O)O[C@@H]1CO	> 242 µM	> 242 µM	> 242 µM	> 242 µM	>=800 uM													
COP(=O)(CC(=O)O[C@H]1C[C@H](n2cc(CCCl)c(=O)[nH]c2=O)O[C@@H]1CO)OC	6.8 µM (≈ 3 µg/mL)	0.7 µM (≈ 0.309 µg/mL)	22.7 µM (≈ 10 µg/mL)	68.1 µM (≈ 30 µg/mL)	227 µM													MIC (Human alphaherpesvirus 1 [9]): 227 µM (≈ 100 µg/mL); MIC (Human alphaherpesvirus 2 [10]): > 227 µM; MIC (Human alphaherpesvirus 2 [16]): 227 µM (≈ 100 µg/mL); MIC (Human alphaherpesvirus 1 [17]): > 227 µM
CCOC(=O)P(=O)(Nc1ccccc1)OC[C@H]1O[C@@H](n2cc(CCCl)c(=O)[nH]c2=O)C[C@@H]1O (some centres undefined)	59.8 µM (≈ 30 µg/mL)	2 µM (≈ 1 µg/mL)	> 199 µM	2 µM (≈ 1 µg/mL)	658 µM	18 days	75	13.9 days	15.4 days	17.8 days	25	13.1 days	25	11.4 days	50	67	100	MIC (Human alphaherpesvirus 1 [9]): 59.8 µM (≈ 30 µg/mL); MIC (Human alphaherpesvirus 2 [10]): > 199 µM; MIC (Human alphaherpesvirus 2 [16]): 199 µM (≈ 99.9 µg/mL); MIC (Human alphaherpesvirus 1 [17]): > 199 µM
